The compounds below were run against T1, human full-length MKNK1 (Homo sapiens, UniProt Q9BUB5, T385D) (assay: MKNK1 kinase high ATP assay (TR-FRET)). Settings: Table 1; MKNK1 kinase high ATP assay, 2 mM ATP; read-out: MKNK1 IC50.
T1 construct: GST (N); purchased Carna Biosciences 02-145; host or cells: insect cells (baculovirus expression system)
Type: biochemical
Procedure, shortened: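 Full-length human MKNK1 (T385D) preincubated 15 min at 22 °C with compound in HEPES pH 7.5/MgCl2/DTT buffer; reaction with 2 mM ATP (final) and 0.06 μM biotinylated peptide (final), 30 min at 22 °C.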

T1 sequence (Q9BUB5 1-424 isoform Q9BUB5-2 T344D): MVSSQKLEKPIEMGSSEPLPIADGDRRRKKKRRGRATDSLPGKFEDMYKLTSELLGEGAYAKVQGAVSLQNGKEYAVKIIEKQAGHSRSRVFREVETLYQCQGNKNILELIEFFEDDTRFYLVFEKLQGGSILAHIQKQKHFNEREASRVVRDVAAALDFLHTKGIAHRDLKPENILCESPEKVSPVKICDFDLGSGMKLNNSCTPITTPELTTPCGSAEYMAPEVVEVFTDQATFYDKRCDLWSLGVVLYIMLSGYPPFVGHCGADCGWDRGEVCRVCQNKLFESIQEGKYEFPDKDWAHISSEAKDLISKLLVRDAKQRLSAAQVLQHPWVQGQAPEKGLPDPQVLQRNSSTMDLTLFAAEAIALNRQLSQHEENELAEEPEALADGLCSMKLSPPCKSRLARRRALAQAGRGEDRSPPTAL

Structure (SMILES)	IC50 [nM]
CN(C)C(=O)[C@H]1CCc2c(sc3ncnc(Nc4cc5cn[nH]c5cc4NCC(C)(C)O)c23)C1 [Example 100, (7S)-4-({6-[(2-Hydroxy-2-methylpropyl)amino]-1H-indazol-5-yl}amino)-N,N-dimethyl-5,6,7,8-tetrahydro[1]benzothieno[2,3-d]pyrimidine-7-carboxamide]	882
CN(C)C(=O)[C@H]1CCc2c(sc3ncnc(Nc4cc5cn[nH]c5cc4N4CCC4)c23)C1 [Example 102, (7S)-4-{[6-(Azetidin-1-yl)-1H-indazol-5-yl]amino}-N,N-dimethyl-5,6,7,8-tetrahydro[1]benzothieno[2,3-d]pyrimidine-7-carboxamide]	24.5
CN(C)C(=O)[C@H]1CCc2c(sc3ncnc(Nc4cc5cn[nH]c5cc4N4CCC(N(C)C)CC4)c23)C1 [Example 104, (7S)-4-({6-[4-(Dimethylamino)piperidin-1-yl]-1H-indazol-5-yl}amino)-N,N-dimethyl-5,6,7,8-tetrahydro[1]benzothieno[2,3-d]pyrimidine-7-carboxamide]	29.5
CN(C)CCOc1cc2[nH]ncc2cc1Nc1ncnc2sc3c(c12)CC[C@H](C(=O)N(C)C)C3 [Example 109, (7S)-4-({6-[2-(Dimethylamino)ethoxy]-1H-indazol-5-yl}amino)-N,N-dimethyl-5,6,7,8-tetrahydro[1]benzothieno[2,3-d]pyrimidine-7-carboxamide]	16.5
CN(C)C(=O)[C@H]1CCc2c(sc3ncnc(Nc4cc5cn[nH]c5cc4OCCN4CCCC4)c23)C1 [Example 112, (7S)—N,N-Dimethyl-4-({6-[2-(pyrrolidin-1-yl)ethoxy]-1H-indazol-5-yl}amino)-5,6,7,8-tetrahydro[1]benzothieno[2,3-d]pyrimidine-7-carboxamide]	76.3
CN(C)C(=O)[C@H]1CCc2c(sc3ncnc(Nc4cc5cn[nH]c5cc4OCCN4CCCCC4)c23)C1 [Example 113, (7S)—N,N-Dimethyl-4-({6-[2-(piperidin-1-yl)ethoxy]-1H-indazol-5-yl}amino)-5,6,7,8-tetrahydro[1]benzothieno[2,3-d]pyrimidine-7-carboxamide]	634
C[C@@H]1COCCN1C(=O)[C@H]1CCc2c(sc3ncnc(Nc4cc5cn[nH]c5cc4OCCN(C)C)c23)C1 [Example 114, [(7S)-4-({6-[2-(Dimethylamino)ethoxy]-1H-indazol-5-yl}amino)-5,6,7,8-tetrahydro[1]benzothieno[2,3-d]pyrimidin-7-yl][(3R)-3-methylmorpholin-4-yl]methanone]	34.2
C[C@@H]1COCCN1C(=O)[C@H]1CCc2c(sc3ncnc(Nc4cc5cn[nH]c5cc4OCCN4CCCC4)c23)C1 [Example 115, [(3R)-3-Methylmorpholin-4-yl][(7S)-4-({6-[2-(pyrrolidin-1-yl)ethoxy]-1H-indazol-5-yl}amino)-5,6,7,8-tetrahydro[1]benzothieno[2,3-d]pyrimidin-7-yl]methanone]	71.5
C[C@@H]1COCCN1C(=O)[C@H]1CCc2c(sc3ncnc(Nc4cc5cn[nH]c5cc4OCCN4CCCCC4)c23)C1 [Example 116, [(3R)-3-Methylmorpholin-4-yl][(7S)-4-({6-[2-(piperidin-1-yl)ethoxy]-1H-indazol-5-yl}amino)-5,6,7,8-tetrahydro[1]benzothieno[2,3-d]pyrimidin-7-yl]methanone]	1190
C[C@H]1COCCN1C(=O)[C@H]1CCc2c(sc3ncnc(Nc4cc5cn[nH]c5cc4OCCN(C)C)c23)C1 [Example 117, [(7S)-4-({6-[2-(Dimethylamino)ethoxy]-1H-indazol-5-yl}amino)-5,6,7,8-tetrahydro[1]benzothieno[2,3-d]pyrimidin-7-yl][(3S)-3-methylmorpholin-4-yl]methanone]	20
C[C@H]1COCCN1C(=O)[C@H]1CCc2c(sc3ncnc(Nc4cc5cn[nH]c5cc4OCCN4CCCC4)c23)C1 [Example 118, [(3S)-3-Methylmorpholin-4-yl][(7S)-4-({6-[2-(pyrrolidin-1-yl)ethoxy]-1H-indazol-5-yl}amino)-5,6,7,8-tetrahydro[1]benzothieno[2,3-d]pyrimidin-7-yl]methanone]	92.3
C[C@H]1COCCN1C(=O)[C@H]1CCc2c(sc3ncnc(Nc4cc5cn[nH]c5cc4OCCN4CCCCC4)c23)C1 [Example 119, [(3S)-3-Methylmorpholin-4-yl][(7S)-4-({6-[2-(piperidin-1-yl)ethoxy]-1H-indazol-5-yl}amino)-5,6,7,8-tetrahydro[1]benzothieno[2,3-d]pyrimidin-7-yl]methanone]	757

These reach a lower IC50. Values come first.

IC50 [nM]	Structure (SMILES)
14.1	CCCCN(C)C(=O)[C@H]1CCc2c(sc3ncnc(Nc4cc5cn[nH]c5cc4N4CCC(N(C)C)CC4)c23)C1 [Example 105, (7S)—N-Butyl-4-({6-[4-(dimethylamino)piperidin-1-yl]-1H-indazol-5-yl}amino)-N-methyl-5,6,7,8-tetrahydro[1]benzothieno[2,3-d]pyrimidine-7-carboxamide]
10	CN(C)C(=O)[C@H]1CCc2c(sc3ncnc(Nc4cc5cn[nH]c5cc4OCCN=[N+]=[N-])c23)C1 [Example 107, (7S)-4-{[6-(2-Azidoethoxy)-1H-indazol-5-yl]amino}-N,N-dimethyl-5,6,7,8-tetrahydro[1]benzothieno[2,3-d]pyrimidine-7-carboxamide]
9.1	CN(C)C(=O)[C@H]1CCc2c(sc3ncnc(Nc4cc5cn[nH]c5cc4N(C)CC(C)(C)O)c23)C1 [Example 101, (7S)-4-({6-[(2-Hydroxy-2-methylpropyl)(methyl)amino]-1H-indazol-5-yl}amino)-N,N-dimethyl-5,6,7,8-tetrahydro[1]benzothieno[2,3-d]pyrimidine-7-carboxamide]
4.6	CSc1cc2[nH]ncc2cc1Nc1ncnc2sc3c(c12)CC[C@H](C(=O)N(C)C)C3 [Example 106, (7S)—N,N-Dimethyl-4-{[6-(methylsulfanyl)-1H-indazol-5-yl]amino}-5,6,7,8-tetrahydro[1]benzothieno[2,3-d]pyrimidine-7-carboxamide]
2.3	CN(C)C(=O)[C@H]1CCc2c(sc3ncnc(Nc4cc5cn[nH]c5cc4OCCCN=[N+]=[N-])c23)C1 [Example 110, (7S)-4-{[6-(3-Azidopropoxy)-1H-indazol-5-yl]amino}-N,N-dimethyl-5,6,7,8-tetrahydro[1]benzothieno[2,3-d]pyrimidine-7-carboxamide]
1.4	CN(C)C(=O)[C@H]1CCc2c(sc3ncnc(Nc4cc5cn[nH]c5cc4OCCCN)c23)C1 [Example 111, (7S)-4-{[6-(3-Aminopropoxy)-1H-indazol-5-yl]amino}-N,N-dimethyl-5,6,7,8-tetrahydro[1]benzothieno[2,3-d]pyrimidine-7-carboxamide]
1.3	CN(C)C(=O)[C@H]1CCc2c(sc3ncnc(Nc4cc5cn[nH]c5cc4N4CCCC4)c23)C1 [Example 103, (7S)—N,N-Dimethyl-4-{[6-(pyrrolidin-1-yl)-1H-indazol-5-yl]amino}-5,6,7,8-tetrahydro[1]benzothieno[2,3-d]pyrimidine-7-carboxamide]
0.7	CN(C)C(=O)[C@H]1CCc2c(sc3ncnc(Nc4cc5cn[nH]c5cc4O)c23)C1 [Example 96, (7S)-4-[(6-Hydroxy-1H-indazol-5-yl)amino]-N,N-dimethyl-5,6,7,8-tetrahydro[1]benzothieno[2,3-d]pyrimidine-7-carboxamide]
0.6	CN(C)C(=O)[C@H]1CCc2c(sc3ncnc(Nc4cc5cn[nH]c5cc4OCCN)c23)C1 [Example 108, (7S)-4-{[6-(2-Aminoethoxy)-1H-indazol-5-yl]amino}-N,N-dimethyl-5,6,7,8-tetrahydro[1]benzothieno[2,3-d]pyrimidine-7-carboxamide]
0.3	CCCN(C)C(=O)[C@H]1CCc2c(sc3ncnc(Nc4cc5cn[nH]c5cc4OC)c23)C1 [Example 97, (7S)-4-[(6-methoxy-1H-indazol-5-yl)amino]-N-methyl-N-propyl-5,6,7,8-tetrahydro[1]benzothieno[2,3-d]pyrimidine-7-carboxamide]
0.3	CC(C)N(C)c1cc2[nH]ncc2cc1Nc1ncnc2sc3c(c12)CC[C@H](C(=O)N(C)C)C3 [Example 99, (7S)—N,N-Dimethyl-4-({6-[methyl(propan-2-yl)amino]-1H-indazol-5-yl}amino)-5,6,7,8-tetrahydro[1]benzothieno[2,3-d]pyrimidine-7-carboxamide]
0.3	COc1cc2[nH]ncc2cc1Nc1ncnc2sc3c(c12)CC[C@H](C(=O)N1C[C@H]2C[C@@H]1CN2C)C3 [Example 121, {(7S)-4-[(6-Methoxy-1H-indazol-5-yl)amino]-5,6,7,8-tetrahydro[1]benzothieno[2,3-d]pyrimidin-7-yl}[(1R,4R)-5-methyl-2,5-diazabicyclo[2.2.1]hept-2-yl]methanone]
0.2	CN(C)C(=O)[C@H]1CCc2c(sc3ncnc(Nc4cc5cn[nH]c5cc4N(C)C)c23)C1 [Example 98, (7S)-4-{[6-(Dimethylamino)-1H-indazol-5-yl]amino}-N,N-dimethyl-5,6,7,8-tetrahydro[1]benzothieno[2,3-d]pyrimidine-7-carboxamide]
0.2	COc1cc2[nH]ncc2cc1Nc1ncnc2sc3c(c12)CC[C@H](C(=O)N1C[C@@H]2C[C@H]1CN2C)C3 [Example 120, {(7S)-4-[(6-Methoxy-1H-indazol-5-yl)amino]-5,6,7,8-tetrahydro[1]benzothieno[2,3-d]pyrimidin-7-yl}[(1S,4S)-5-methyl-2,5-diazabicyclo[2.2.1]hept-2-yl]methanone]
0.2	CCOc1cc2[nH]ncc2cc1Nc1ncnc2sc3c(c12)CC[C@H](C(=O)N1CCC(N(C)C)CC1)C3 [Example 122, [4-(Dimethylamino)piperidin-1-yl]{(7S)-4-[(6-ethoxy-1H-indazol-5-yl)amino]-5,6,7,8-tetrahydro[1]benzothieno[2,3-d]pyrimidin-7-yl}methanone]

From patent US20160297833A1, “THIENOPYRIMIDINES AS MKNK1 AND MKNK2 INHIBITORS” (BAYER PHARMA AKTIENGESELLSCHAFT, priority 2013, published 2016)
